Like-named read-outs stand apart in the source and are kept apart here.
Columns and labels:
[1] = test system: SARS-CoV-2-nluc, WA1/2020; conditions: inhibitor; read-out: EC50 SARS-CoV-2-nluc, Calu-3
[2] = test system: Vesicular stomatitis virus rVSV-SARS-CoV-2-S; conditions: inhibitor; read-out: EC50 rVSV-SARS-CoV-2-S, Vero
[3] = test system: Venezuelan equine encephalitis virus VEEV (TC-83); conditions: inhibitor; read-out: EC50 VEEV (TC-83), U-87 MG
DENV2 = test system: DENV2; design: DENV2 replication, plaque assay; conditions: inhibitor; read-out: EC50 DENV2, Huh7
Ebola virus EBOV = conditions: 48 h; inhibitor; read-out: EC50 EBOV, Huh7
Marburg virus MARV = conditions: 48 h; inhibitor; read-out: EC50 MARV, Huh7
Huh7 = conditions: human, huh7 cells
[4] = test system: Vesicular stomatitis virus rVSV-SARS-CoV-2-S; conditions: inhibitor; read-out: EC50 rVSV-SARS-CoV-2-S, Vero; remark: listed apart in the source
SARS-CoV-2 = test system: SARS-CoV-2; design: species or system human adult lung organoid-derived monolayers; SARS-CoV-2 infectious titre in organoid supernatants, plaque assay; conditions: inhibitor; read-out: EC50 SARS-CoV-2, ALO
in vitro = conditions: human, adult lung organoid monolayer

| SMILES | EC50 [1] [µM] | EC50 [2] [µM] | EC50 [3] [µM] | EC50 (DENV2) [µM] | EC50 (Ebola virus EBOV) [µM] | EC50 (Marburg virus MARV) [µM] | CC50 (Huh7) [µM] | EC50 [4] [µM] | EC50 (SARS-CoV-2) [µM] | CC50 (in vitro) [µM] |
| --- | --- | --- | --- | --- | --- | --- | --- | --- | --- | --- |
| COc1ccc(-c2cnc3c(C#Cc4cccnc4)snc3c2)cc1OC [RMC-113] | 1.45 | 1.8 | 1.4 | 1.4 | 5 | 7.8 | > 10 | – | – | – |
| Cc1cccc(/C=N/Nc2cc(N3CCOCC3)nc(OCCc3ccccn3)n2)c1 [Apilimod] | – | – | – | – | – | – | – | 0.012 | 0.42 | 9.9 |

From paper doi:10.1101/2024.04.15.589676 (bioRxiv, 2024)
